Data as given in patent US9464055B2, “Quinoline derivatives useful as CB-1 inverse agonists” (JANSSEN PHARMACEUTICA NV, priority 2014, dated 2016).
pEC50, pIC50: −log10 of the molar value.

Assays:
hCB2-HEK293 membranes = target: T1, hCB2-HEK293 membranes (Homo sapiens, UniProt P34972); assay: CB-2 membrane binding assay ([3H] CP 55,940 displacement); conditions: mean where tested more than once
T1 construct: expressed in transfected cells; host or cells: HEK293

[1] = Chronic DIO mouse: plasma and brain concentrations; assay type: in vivo; conditions: for Brain concentration (Std Dev): DIO mice, second study
Experimental: Male 14-20-week old diet-induced obese mice were ordered from Taconic. Mice were started on a 60% fat diet (D12492, Research Diets, New Brunswick, N.J.) at 6 weeks of age. Mice were single-housed.
(§1) Test compounds were formulated in 10% PEG400 and 10% solutol. Test compounds were administered by oral gavage (5 ml kg^−1).
The test compound was formulated in 10% PEG400 and 10% solutol. DIO mice received vehicle, test compound (@1, 3 and 10 mg/kg) daily for 26 days. At the end of the experiment, the mice were euthanized and blood and tissues were collected.
Compound #44 was tested according to the procedure as described above, with results as listed in Table BIO-4A through Table BIO4-G, below.
In a second study, Compound #44 was tested according to the procedure as described above, with results as listed in Tables BIO-5A through 5G, below.

Male SD rats = assay: Open field locomotor activity in rats (CNS activity), stereotypic counts; assay type: in vivo, rat; conditions: 4 hour monitoring, vehicle 3022
From the text: (§2) Male Sprague Dawley rats were ordered from Charles River (225-250 gm upon arrival). They were fed standard chow diet (Purina 5001) and housed 2 per cage. Male C57bl/6j mice were ordered from Charles River at 22-25 g and housed 3 per cage. They were fed standard chow (Purina 5001). All animals were housed in a temperature-controlled room with 12-hour light/dark cycle. Animals were given food and water ad libitum, except as noted.
as §1
Male SD rats were weighed and transferred to the Activity Chambers with access to water. After a 2-hr acclimation period, the rats were dosed with vehicle or test compound (@3 and 10 mg/kg). The Activity Chamber monitoring software program was initiated and automatically recorded rat activity in each chamber for a period of 4 hours. At the end of the 4 hour monitoring period, the software was stopped and the rats were removed from the activity chambers. The rats were anesthetized and blood samples were obtained via retro-orbital puncture to determine plasma concentration of compounds. The rats were immediately euthanized with CO2 and the brains removed, washed with PBS, frozen on dry ice and stored at −80° C. for receptor occupancy (RO) analysis. […]

hCB1-CHO-K1 membranes = hCB1-CHO-K1 membranes (Homo sapiens, UniProt P21554); assay: CB-1 membrane binding assay ([3H] CP 55,940 displacement)
hCB1-CHO-K1 membranes, sequence (P21554 whole entry): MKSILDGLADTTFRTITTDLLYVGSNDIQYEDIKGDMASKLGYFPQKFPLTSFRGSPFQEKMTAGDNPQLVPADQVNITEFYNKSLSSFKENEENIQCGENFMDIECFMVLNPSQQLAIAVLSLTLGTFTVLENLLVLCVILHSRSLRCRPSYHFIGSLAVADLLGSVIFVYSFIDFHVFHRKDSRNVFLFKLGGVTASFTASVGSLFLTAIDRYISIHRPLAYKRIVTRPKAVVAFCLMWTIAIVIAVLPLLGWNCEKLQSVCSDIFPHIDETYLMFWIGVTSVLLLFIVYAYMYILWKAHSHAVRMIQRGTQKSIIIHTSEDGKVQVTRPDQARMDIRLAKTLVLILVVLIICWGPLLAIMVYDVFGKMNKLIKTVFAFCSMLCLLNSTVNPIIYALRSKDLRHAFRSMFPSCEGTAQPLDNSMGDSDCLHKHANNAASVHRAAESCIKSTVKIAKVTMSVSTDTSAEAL

[2] = target: T2, Human CB2R (Cannabinoid receptor 2) (Homo sapiens, UniProt P34972); assay: CB-2 in vitro cAMP (HTRF) functional assay; assay type: cell-based; conditions: mean where tested more than once
T2 construct: host or cells: HEK-293
T2 sequence (P34972 whole entry): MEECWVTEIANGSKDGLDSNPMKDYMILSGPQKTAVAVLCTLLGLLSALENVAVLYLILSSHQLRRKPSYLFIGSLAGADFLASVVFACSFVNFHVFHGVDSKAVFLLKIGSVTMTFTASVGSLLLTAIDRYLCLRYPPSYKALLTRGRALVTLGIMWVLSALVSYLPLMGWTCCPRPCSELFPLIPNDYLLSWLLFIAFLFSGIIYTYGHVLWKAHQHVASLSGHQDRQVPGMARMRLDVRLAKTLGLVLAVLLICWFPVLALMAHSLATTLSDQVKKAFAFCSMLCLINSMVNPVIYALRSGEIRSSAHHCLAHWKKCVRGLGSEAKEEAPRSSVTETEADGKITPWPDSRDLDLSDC
From the text: CB1 and CB2 receptors are Gi-coupled GPCR. Activation of CB1 and CB2 receptors results in a decrease in cAMP production. An inverse agonist of the CB1 or CB2 receptor results in the opposite effect, an increase of cAMP production. The principle of this assay is based on HTRF® technology (Homogeneous Time-Resolved Fluorescence). The method is a competitive immunoassay between native cAMP produced by cells and the cAMP labeled with the fluorophore d2. The tracer binding is quantified by a Mab anti-cAMP labeled with Eu3+ TBP-NHS Cryptate (supplied as part of the assay kit). The specific signal (i.e. energy transfer) is inversely proportional to the concentration of cAMP in the standard or sample.
Human CB1R (Cannabinoid receptor 1) was stably transfected in HEK-293 cells (DiscoveRx, cat: 93-0200C1). Human CB2R (Cannabinoid receptor 2) was stably transfected in HEK-293 cells (DiscoveRx, cat: 93-0201C1). Cell cultures were maintained in media: DMEM (Invitrogen Cat#12430-054) supplemented with 10% HI FBS (Invitrogen Cat#16140-071), 1% L-glutamine (Invitrogen Cat#25030-081), 0.2 mg/ml Hygromycin B (Invitrogen Cat#10687-010), 600 μg/mL G418 (Invitrogen Cat#10131-035), and 1× Penn/Strep (Invitrogen 15140-122). After cell expansion, aliquots were cryo-stored in media containing 5% DMSO (Pierce Cat#20684).
One day prior to experiments media was warmed to 37° C. and the cryo-stored cells were thawed in a 37° C. water bath. The cells were then added to media (10× volume) and the mixture was centrifuged at 1000 RPM for 5 min. The supernate was removed and the cells were re-suspended in media. A sample of the cell suspension was evaluated on a Cedex XS automated cell counter (Innovatis Systems) to determine viable cells/ml. Additional media was added to the cells to achieve a final cell density of 4E5 cells/mL. The cells were then plated into 384 well PDL white solid bottom plates (Greiner, Cat#781945) at 20 μL per well using a Multidrop (Thermo Scientific). Cells were removed from Row P (location of cAMP standards). Two columns of cells were plated into a clear bottom 384 well PDL coated plate (Greiner, Cat#781944) to view confluence the day of the assay. The cell plates were lidded and stored for 15 minutes in a hood, then transferred to an incubator (37° C., 5% CO2, 95% humidity) overnight.
DMSO was added to all wells of 384 well V bottom polystyrene plate (Greiner, Cat#781280) except to columns 1 and 13, rows O and P and wells M13-M23 and N13-N23. Test compounds (60 μL, 10 mM) were added to Column 1 and 13 (A1 through N1 and A13 through L13). Test compounds were serially diluted 1/3 by transferring and mixing 20 μl sample with 40 μL DMSO.
DMSO (40 μL) was added to wells of 384 well V bottom polystyrene plate: O2 through O11, M14 through M23, N14 through N23, and O14 through O23. AM630 (also known as [6-iodo-2-methyl-1-[2-(4-morpholinyl)ethyl]-1H-indol-3-yl](4-methoxyphenyl)-methanone, Cayman Chemical, Cat#10006974) (60 μL, 10 mM) was added to O1; and 1-(2,4-dichlorophenyl)-7-[(4-fluorophenyl)methylene]-4,5,6,7-tetrahydro-N-1-piperidinyl-1H-indazole-3-carboxamide (60 μL, 10 mM) was added to N13. The control was serially diluted 1/3 by transferring and mixing 20 μl sample with 40 μL DMSO. This process resulted 11 doses per control, 10 mM to […].
Cells plated the day prior to the assay in clear bottom plates were viewed on an inverse microscope to ensure confluency in the range of 60-75%. […]

[3] = Mouse Fast PK/BBB (plasma and brain concentration); assay type: in vivo, Male C57bl/6j mice; conditions: 1 hr after oral dosing; 30 mg/kg or 20 mg/kg; N=3
From the text: as §2, §1
Male C57bl/6j mice were dosed with test compounds at 30 mg/kg. Plasma was collected via retro-orbital bleeding at 1 hr and 4 hrs after dosing. […] Wet brain weight was recorded before freezing. Brains were homogenized in saline and sent for analysis for determination of concentration of test compound.
Table BIO-3 below present results for representative compounds of the present invention, tested according to the procedure as described above. Each compound was tested in three animals (N=3) and administered PA at 20 mg/kg

T1 sequence (P34972 whole entry): as above

| pIC50 (hCB2-HEK293 membranes) | Plasma Concentration (Std Dev) ([1]; 1 mg/kg daily, 2 Hours Post Dose, Day 16, first study) | Brain concentration (Std Dev) ([1]; 0.3 mg/kg, Day 2, 2 hours post dose) | Brain concentration (Std Dev) ([1]; 0.3 mg/kg, Day 23, 2 hours post dose) | Brain concentration (Std Dev) ([1]; 1 mg/kg, Day 2, 2 hours post dose) | Brain concentration (Std Dev) ([1]; 3 mg/kg, Day 2, 2 hours post dose) | Stereotypic Counts (MEAN) (Male SD rats; n=8, first #44 row, dose not printed (presumably 3 mg/kg)) | Stereotypic Counts (MEAN) (Male SD rats; n=8, second #44 row, dose not printed (presumably 10 mg/kg)) | pIC50 (hCB1-CHO-K1 membranes) | pEC50 [2] | BRAIN Mean Conc. ± Std. Dev [3] | Structure (SMILES) |
| --- | --- | --- | --- | --- | --- | --- | --- | --- | --- | --- | --- |
| 7.28 | 431 (62) ng/mL | BLOQ* | BLOQ** | BLOQ* | BLOQ* | 3250 | 2850 | 8.92 | – | – | O=c1cc(NC2CCN(S(=O)(=O)C(F)(F)F)CC2)c2cc(C(c3ccc(Cl)cc3)c3ccc(Cl)cc3)ccc2[nH]1 [Compound #44, 6-(bis(4-chlorophenyl)methyl)-4-(1-(trifluoromethylsulfonyl)piperidin-4-ylamino)quinolin-2(1H)-one] |
| – | – | – | – | – | – | – | – | – | < 5.00 | BLOQ ± NA | O=c1cc(Nc2ccc(C(F)(F)F)cc2)c2cc(C(c3ccc(Cl)cc3)c3ccc(Cl)cc3)ccc2[nH]1 [Compound #59, 6-(bis(4-chlorophenyl)methyl)-4-((4-(trifluoromethyl)phenyl)amino)quinolin-2(1H)-one] |
